Experimental data from patent US20100029773A1 (priority 2004, published 2010).

How the values were obtained:
[1] = test system: PrPSc in scrapie-infected N2a (ScN2a) cells; experiment: cells; type: cell-based, mouse; details: for EC50: Mus musculus, ScN2a, read-out: EC50 of clearance of PrPSc from the cells; for activity against PrPSc propagation in cell culture: ScN2a cells, first screening at 15 mM (so in the source), 2 days
[2] = test system: RML scrapie; details: for prolongation of the median of the survival time versus vehicle (75% DMSO) group: daily intraperitoneal, days 102-115 post intracerebral RML infection, 125-500 nmol
[3] = target: association between PrPC and PrPSc (recombinant mouse PrP binding to PrP-Sc aggregates from human CJD brain) (Mus musculus, UniProt P04925); set-up: species or system mouse rPrP; human PrP-Sc; details: for classification in primary SIFT screening: primary hit = at least approx. 50% of the effect of 17 μM DOSPA on sum of bins in green sectors 1-5; for validation in SIFT dilution series (dose-dependent inhibition): six point dilution series 0.1-100 mM (so in the source)
Chain of association between PrPC and PrPSc (recombinant mouse PrP binding to PrP-Sc aggregates from human CJD brain) (P04925 23-231 limits assumed): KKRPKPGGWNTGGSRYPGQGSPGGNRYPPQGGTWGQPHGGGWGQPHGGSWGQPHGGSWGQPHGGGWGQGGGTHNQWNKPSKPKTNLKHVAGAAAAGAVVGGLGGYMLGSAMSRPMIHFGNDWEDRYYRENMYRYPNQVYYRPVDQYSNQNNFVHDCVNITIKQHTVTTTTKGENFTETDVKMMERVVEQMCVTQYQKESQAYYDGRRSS

[4] = target: α-synuclein (Homo sapiens, UniProt P37840); experiment: DMSO-induced α-synuclein aggregation in vitro (fluorescence cross-correlation and SIFT analysis); type: biochemical; details: 10 μM in 1% DMSO, 3-5 h
[5] = test system: PrP-Sc deposits in spleen; set-up: species or system C57Bl6 mice; details: mouse, in vivo
[6] = test system: PrPSc in scrapie-infected N2a (ScN2a) cells; details: cell culture; cited from earlier work

SMILES | prolongation of the median of the survival time versus vehicle (75% DMSO) group [2] | classification in primary SIFT screening [3] | validation in SIFT dilution series (dose-dependent inhibition) [3] | further results
O=C(NN=Cc1ccc2ccccc2c1)c1ccc(O)c(O)c1 [293G02, 3,4-dihydroxy-N′-(naphthalen-2-ylmethylene)-benzohydrazide] | 9.5 days | primary SIFT hits | validated in SIFT dilution series | EC50 [1]: ~2 µM; activity against PrPSc propagation in cell culture [1]: strongest cell culture activity; inhibition of formation of multimeric α-synuclein complexes [4]: inhibiting the formation of multimeric α-synuclein complexes to a large extent; PrP-Sc deposits in spleen tissue [5]: no signs of PrP-Sc deposition could be detected
O=C(NN=Cc1ccc2ccccc2c1)c1ccccc1O [297F03, 2-hydroxy-N′-(naphthalen-2-ylmethylene)-benzohydrazide] | – | primary SIFT hits | validated in SIFT dilution series | –
O=C(NN=Cc1ccc2ccccc2c1)c1ccc(O)cc1O [301C09, 2,4-dihydroxy-N′-(naphthalen-2-ylmethylene)-benzohydrazide] | – | primary SIFT hits | validated in SIFT dilution series | –
O=C(NN=Cc1ccc(Cl)cc1Cl)c1ccc(O)c(O)c1 [305E04, 3,4-dihydroxy-N′-(2,4-dichlorobenzylidene)-benzohydrazide] | – | primary SIFT hits | validated in SIFT dilution series | –
O=C(NN=Cc1ccc2ccccc2c1)c1cccc(Cl)c1 [306H03, 3-chloro-N′-(naphthalen-2-ylmethylene)-benzohydrazide] | – | primary SIFT hits | validated in SIFT dilution series | –
COc1ccc(C=NNC(=O)c2cccc(F)c2)cc1Br [309F02, 3-fluoro-N′-(3-bromo-4-methoxybenzylidene)-benzohydrazide] | 11.5 days | primary SIFT hits | validated in SIFT dilution series | –
COc1cc(C=NN=C(N)N)ccc1OCc1c(C)c(C)c(Br)c(C)c1C [313B02, 1-(4-(4-bromo-2,3,5,6-tetramethylbenzyloxy)-3-methoxybenzylidene)-2-diaminomethylene-hydrazine] | no such prolongation | primary SIFT hits | validated in SIFT dilution series | EC50 [1]: ~6 µM; toxic signs during treatment ([2]; intraperitoneal 50 μl per day of 5 mM, reduced to 2.5 mM after day 4): toxic signs
CCCCCCCC/C=C\CCCCCCCCOCC(C[N+](C)(C)CCNC(=O)C(CCCNCCCN)NCCCN)OCCCCCCCC/C=C\CCCCCCCC.Cl.Cl.Cl.Cl.[Cl-] (centres unmarked) [DOSPA, reference compound] | – | – | – | activity against PrPSc propagation in cell culture [1]: PrPSc is cleared from the infected cells; inhibition of PrPSc formation in scrapie-infected mouse cells (previous finding) [6]: inhibit PrPSc formation; SIFT signal in sectors of aggregates predominantly labelled with green rPrP ([3]; 17 μM): reduced SIFT signal
